Test results as given in patent US20150197550A1 (UNIVERSITY OF ULSTER, priority 2012, published 2015).
Square brackets hold non-standard residues; d marks the D form. Peptide text beside a SMILES is read from it.

Experiments:
[1] = Stability on incubation with mouse plasma for 8 h (RP-HPLC peak height); type: in vitro ADME; settings: mouse, plasma
Method: The samples were then separated on RP-HPLC and the peak height compared to the value at time=0 hours.

[2] = human, in vivo; cited from earlier work

Compound | metabolised at 8 h [1] [%] | half-life [2]
CSCC[C@H](NC(=O)[C@H](Cc1ccc(O)cc1)NC(=O)[C@H](CCCCN)NC(=O)[C@H](CO)NC(=O)[C@H](Cc1ccc(O)cc1)NC(=O)[C@H](CC(=O)O)NC(=O)[C@H](CO)NC(=O)[C@@H](NC(=O)[C@H](Cc1ccccc1)NC(=O)[C@@H](NC(=O)CNC(=O)[C@H](CCC(=O)O)NC(=O)[C@@H](C)NC(=O)[C@@H](N)Cc1c[nH]cn1)[C@@H](C)O)[C@@H](C)O)C(=O)N[C@@H](CC(=O)O)C(=O)N[C@@H](CC(N)=O)C(=O)N[C@@H](CCCNC(=N)N)C(=O)N[C@@H](CCCNC(=N)N)C(=O)N[C@@H](C)C(=O)N[C@@H](CCCCN)C(=O)N[C@H](CC(=O)O)C(=O)N[C@@H](Cc1ccccc1)C(=O)N[C@H](C(=O)N[C@@H](CCC(N)=O)C(=O)N[C@@H](Cc1c[nH]c2ccccc12)C(=O)N[C@@H](CC(C)C)C(=O)N[C@@H](CCSC)C(=O)N[C@@H](CC(N)=O)C(=O)N[C@H](C(=O)O)[C@@H](C)O)C(C)C [(D-A^2 D-D^21) dogfish glucagon, (D-A^2D-D^21) dogfish glucagon] (H-H[dA]EGTFTSDYSKYMDNRRAK[dD]FVQWLMNT-OH; N-terminus and C-terminus assumed) | 31.7 | –
CSCC[C@H](NC(=O)[C@H](Cc1ccc(O)cc1)NC(=O)[C@H](CCCCN)NC(=O)[C@H](CO)NC(=O)[C@H](Cc1ccc(O)cc1)NC(=O)[C@H](CC(=O)O)NC(=O)[C@H](CO)NC(=O)[C@@H](NC(=O)[C@H](Cc1ccccc1)NC(=O)[C@@H](NC(=O)CNC(=O)[C@H](CCC(=O)O)NC(=O)[C@@H](C)NC(=O)[C@@H](N)Cc1c[nH]cn1)[C@@H](C)O)[C@@H](C)O)C(=O)N[C@@H](CC(=O)O)C(=O)N[C@@H](CC(N)=O)C(=O)N[C@@H](CCCNC(=N)N)C(=O)N[C@@H](CCCNC(=N)N)C(=O)N[C@@H](C)C(=O)N[C@@H](CCCCN)C(=O)N[C@@H](CC(=O)O)C(=O)N[C@@H](Cc1ccccc1)C(=O)N[C@H](C(=O)N[C@@H](CCC(N)=O)C(=O)N[C@@H](Cc1c[nH]c2ccccc12)C(=O)N[C@@H](CC(C)C)C(=O)N[C@@H](CCSC)C(=O)N[C@@H](CC(N)=O)C(=O)N[C@H](C(=O)N1CCC[C@H]1C(=O)N[C@@H](CO)C(=O)N[C@@H](CO)C(=O)NCC(=O)N[C@@H](C)C(=O)N1CCC[C@H]1C(=O)N1CCC[C@H]1C(=O)N1CCC[C@H]1C(=O)N[C@@H](CO)C(N)=O)[C@@H](C)O)C(C)C [(D-A^2) dogfish glucagon exendin, (D-A^2) dogfish glucagon exendin end] (H-H[dA]EGTFTSDYSKYMDNRRAKDFVQWLMNTPSSGAPPPS-NH2; N-terminus assumed) | 18.3 | –
Glucagon-like peptide-1 [GLP-1] | – | less than two
